{"source": "paper PMC10178848", "about": "“Modulating fast skeletal muscle contraction protects skeletal muscle in animal models of Duchenne muscular dystrophy” (The Journal of Clinical Investigation, 2023)", "key": {"ROCK2": {"target": "T1, ROCK2 (Homo sapiens, UniProt O75116)", "T1 construct": "purchased Eurofins DiscoverX (KINOMEscan; SAFETYscan E/IC50 ELECT)", "assay": "KINOMEscan scanEDGE", "assay_type": "binding", "details": "20 uM"}, "[1]": {"target": "T2, slow bovine masseter skeletal myofibrils (Bos taurus, UniProt Q9BE39)", "T2 construct": "from tissue; host or cells: bovine masseter muscle", "assay": "Myofibril ATPase, bovine masseter", "assay_type": "biochemical", "details": "100% type I, at pCa50"}, "[2]": {"target": "T3, JAK3(JH1domain-catalytic) (Homo sapiens, UniProt P52333)", "T3 construct": "JAK3(JH1domain-catalytic); purchased Eurofins DiscoverX (KINOMEscan; SAFETYscan E/IC50 ELECT)", "T3 sequence (P52333 811-1124 limits assumed)": "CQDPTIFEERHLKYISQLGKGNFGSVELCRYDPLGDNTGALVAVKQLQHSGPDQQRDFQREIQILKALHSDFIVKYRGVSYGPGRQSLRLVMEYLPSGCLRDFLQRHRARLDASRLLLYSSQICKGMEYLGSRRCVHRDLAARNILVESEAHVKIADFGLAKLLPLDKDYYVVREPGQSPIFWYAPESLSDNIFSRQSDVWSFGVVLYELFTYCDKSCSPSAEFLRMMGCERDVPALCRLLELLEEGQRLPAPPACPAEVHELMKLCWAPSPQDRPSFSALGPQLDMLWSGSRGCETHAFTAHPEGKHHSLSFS", "assay": "KINOMEscan scanEDGE", "assay_type": "binding", "details": "20 uM"}, "RIOK2": {"target": "T4, RIOK2 (Homo sapiens, UniProt Q9BVS4)", "T4 construct": "purchased Eurofins DiscoverX (KINOMEscan; SAFETYscan E/IC50 ELECT)", "assay": "KINOMEscan scanEDGE", "assay_type": "binding", "details": "20 uM"}, "DBA/2J mdx mouse": {"system": "DBA/2J mdx mouse", "assay": "12-week dosing in DBA/2J mdx mice (fibrosis)", "assay_type": "in vivo", "details": "12 weeks, chow", "from_the_text": "C57BL/6 (stock no. 000664), C57BL/10J (stock no. 000665, control for mdx experiments), C57BL/10ScSn-Dmd^mdx/J (mdx, stock no. 001801), and D2.B10 (DBA/2-congenic) Dmd^mdx (DBA/2J mdx, stock no. 013141) mice were from The Jackson Laboratory. Sprague-Dawley rats were purchased from Charles River Laboratories. For ex vivo experiments, mice were 10–16 weeks old. For in situ experiments, mice were 8–14 weeks of age. For in vivo chronic dosing studies, mdx and DBA/2J mdx were 4–5 weeks of age at study start. Dosing was via a 10 mL/kg suspension (1% methyl cellulose, 0.1% Tween 80 in water). For studies in 14-day-old preweaning mice, PO dosing was via syrup suspension (3 mg/kg/d). […]\nFor sterile muscle injury, mice were anesthetized with isoflurane and 50 μL cardiotoxin (12 × 10^–6 M, 217503, Millipore) injected in the TA muscle. […] 8 μm cryosections were cut and stained with H&E. For each analysis, more than 10 slides (per condition/group) containing 6 muscle sections/sample were used, and myofibers in the injured area were counted and measured with a Mirax digital scanner and HALO software ([68]). […] Image analysis was performed using ImarisX64 software (Bitplane AG), and fiber sizing was calculated using minimal Feret’s diameter ([69]). […] Fiber type, size, and central nucleation were quantified with analysis via SMASH ([70]) and ImageJ (NIH). […]"}, "FGFR3": {"target": "T5, FGFR3 (Homo sapiens, UniProt P22607)", "T5 construct": "purchased Eurofins DiscoverX (KINOMEscan; SAFETYscan E/IC50 ELECT)", "T5 sequence (P22607 23-806)": "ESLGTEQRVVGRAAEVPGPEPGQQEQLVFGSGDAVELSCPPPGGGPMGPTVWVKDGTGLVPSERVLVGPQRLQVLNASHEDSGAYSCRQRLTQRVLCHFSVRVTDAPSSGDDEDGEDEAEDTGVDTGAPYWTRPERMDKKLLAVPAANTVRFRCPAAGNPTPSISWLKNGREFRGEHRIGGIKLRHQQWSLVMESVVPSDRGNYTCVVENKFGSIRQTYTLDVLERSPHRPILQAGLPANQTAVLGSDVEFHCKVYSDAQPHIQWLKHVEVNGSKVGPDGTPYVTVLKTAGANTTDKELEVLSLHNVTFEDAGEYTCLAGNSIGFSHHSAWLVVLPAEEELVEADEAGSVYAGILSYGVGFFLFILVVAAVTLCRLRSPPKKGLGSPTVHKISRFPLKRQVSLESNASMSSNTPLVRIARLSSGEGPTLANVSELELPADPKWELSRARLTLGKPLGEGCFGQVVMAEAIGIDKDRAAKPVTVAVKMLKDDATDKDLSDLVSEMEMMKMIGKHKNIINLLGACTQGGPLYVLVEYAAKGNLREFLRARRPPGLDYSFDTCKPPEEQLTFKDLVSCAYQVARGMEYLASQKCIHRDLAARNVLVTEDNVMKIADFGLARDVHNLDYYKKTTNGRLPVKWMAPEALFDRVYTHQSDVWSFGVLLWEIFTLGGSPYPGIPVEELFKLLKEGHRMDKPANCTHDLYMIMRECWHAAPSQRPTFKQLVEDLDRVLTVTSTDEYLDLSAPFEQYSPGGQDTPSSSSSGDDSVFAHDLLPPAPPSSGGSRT", "assay": "KINOMEscan scanEDGE", "assay_type": "binding", "details": "20 uM"}, "FLT3": {"target": "T6, FLT3 (Homo sapiens, UniProt P36888)", "T6 construct": "purchased Eurofins DiscoverX (KINOMEscan; SAFETYscan E/IC50 ELECT)", "assay": "KINOMEscan scanEDGE", "assay_type": "binding", "details": "20 uM"}, "FAK": {"target": "T7, FAK (Homo sapiens, UniProt Q05397)", "T7 construct": "purchased Eurofins DiscoverX (KINOMEscan; SAFETYscan E/IC50 ELECT)", "assay": "KINOMEscan scanEDGE", "assay_type": "binding", "details": "20 uM"}, "DYRK1B": {"target": "T8, DYRK1B (Homo sapiens, UniProt Q9Y463)", "T8 construct": "purchased Eurofins DiscoverX (KINOMEscan; SAFETYscan E/IC50 ELECT)", "assay": "KINOMEscan scanEDGE", "assay_type": "binding", "details": "20 uM"}, "PLK1": {"target": "T9, PLK1 (Homo sapiens, UniProt P53350)", "T9 construct": "purchased Eurofins DiscoverX (KINOMEscan; SAFETYscan E/IC50 ELECT)", "assay": "KINOMEscan scanEDGE", "assay_type": "binding", "details": "20 uM"}, "WT and mdx mice": {"system": "WT and mdx mice", "assay": "Voluntary wheel running", "assay_type": "in vivo, mouse", "details": "50 ppm chow", "method": "Prior to in vivo assessments, mice were dosed PO after a 2-hour fast with 10 mL/Kg suspensions. Grip strength and rotarod assessments were performed masked, 4 hours after dosing using published protocols ([66], [67]). Grip strength was performed with a Columbus Instruments Rodent Force Meter. Forepaw strength represented the average of 5 trials with 30-second rest periods, normalized by BW. Rotarod endurance was performed with a Columbus Instruments RotaMax. Mice were placed on the device drum at 1 rpm, which accelerated 1 rpm every 3 seconds to 12 rpm and a maximal time of 500 seconds. This was repeated 3 times with a 3-minute rest and total time reported. Voluntary wheel running performance was assessed with a customized system. Timestamped RPMs were measured 24 hours per day by infrared sensors, and a custom software calculated distance. Whole-body EBD was visualized after intravenous administration ([35]). EBD in PBS at 10 mg/mL was sterile filtered, and 50 μL/10 g BW was injected via tail vein. After 24 hours, animals were sacrificed, skin was removed and fixed in 4% formalin for 24 hours, and photographed using a Leica/Lumix camera."}, "ZAP70": {"target": "T10, ZAP70 (Homo sapiens, UniProt P43403)", "T10 construct": "purchased Eurofins DiscoverX (KINOMEscan; SAFETYscan E/IC50 ELECT)", "assay": "KINOMEscan scanEDGE", "assay_type": "binding", "details": "20 uM"}, "PLK3": {"target": "T11, PLK3 (Homo sapiens, UniProt Q9H4B4)", "T11 construct": "purchased Eurofins DiscoverX (KINOMEscan; SAFETYscan E/IC50 ELECT)", "assay": "KINOMEscan scanEDGE", "assay_type": "binding", "details": "20 uM"}, "PDGFRB": {"target": "T12, PDGFRB (Homo sapiens, UniProt P09619)", "T12 construct": "purchased Eurofins DiscoverX (KINOMEscan; SAFETYscan E/IC50 ELECT)", "T12 sequence (P09619 33-1106)": "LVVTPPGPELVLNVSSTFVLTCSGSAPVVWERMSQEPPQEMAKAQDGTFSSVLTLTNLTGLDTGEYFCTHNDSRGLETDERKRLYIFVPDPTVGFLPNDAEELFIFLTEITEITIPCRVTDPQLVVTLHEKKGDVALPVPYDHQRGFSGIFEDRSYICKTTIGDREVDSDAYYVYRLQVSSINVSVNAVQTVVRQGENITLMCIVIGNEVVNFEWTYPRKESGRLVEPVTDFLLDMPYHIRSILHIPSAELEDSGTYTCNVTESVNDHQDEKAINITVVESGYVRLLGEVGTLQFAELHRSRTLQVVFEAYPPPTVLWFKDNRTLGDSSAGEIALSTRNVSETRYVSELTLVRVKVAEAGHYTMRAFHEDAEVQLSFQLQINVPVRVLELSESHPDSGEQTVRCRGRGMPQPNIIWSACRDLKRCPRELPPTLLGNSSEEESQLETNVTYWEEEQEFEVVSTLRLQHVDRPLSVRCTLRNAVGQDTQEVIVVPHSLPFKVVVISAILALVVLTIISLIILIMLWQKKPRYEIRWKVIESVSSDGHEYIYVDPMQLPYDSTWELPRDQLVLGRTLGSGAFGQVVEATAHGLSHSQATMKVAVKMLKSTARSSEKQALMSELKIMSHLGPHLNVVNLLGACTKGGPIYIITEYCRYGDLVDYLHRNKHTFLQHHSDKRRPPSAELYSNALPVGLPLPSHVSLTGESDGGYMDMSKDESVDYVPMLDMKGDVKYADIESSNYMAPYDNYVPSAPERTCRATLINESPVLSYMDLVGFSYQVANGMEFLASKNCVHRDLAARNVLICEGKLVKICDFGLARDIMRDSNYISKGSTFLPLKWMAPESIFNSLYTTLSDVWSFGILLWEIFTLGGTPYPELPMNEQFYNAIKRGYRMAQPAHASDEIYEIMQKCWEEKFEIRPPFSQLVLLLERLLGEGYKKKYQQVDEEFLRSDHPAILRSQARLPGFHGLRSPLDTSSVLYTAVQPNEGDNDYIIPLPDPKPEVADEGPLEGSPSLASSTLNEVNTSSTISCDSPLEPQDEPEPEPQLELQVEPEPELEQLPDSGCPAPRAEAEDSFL", "assay": "KINOMEscan scanEDGE", "assay_type": "binding", "details": "20 uM"}, "CDK2": {"target": "T13, CDK2 (Homo sapiens, UniProt P24941)", "T13 construct": "purchased Eurofins DiscoverX (KINOMEscan; SAFETYscan E/IC50 ELECT)", "assay": "KINOMEscan scanEDGE", "assay_type": "binding", "details": "20 uM"}, "mdx mice": {"system": "mdx mice", "assay": "Chronic 8-week dosing in mdx mice (fibrosis, weights, histology)", "assay_type": "in vivo, mouse", "from_the_text": "C57BL/6 (stock no. 000664), C57BL/10J (stock no. 000665, control for mdx experiments), C57BL/10ScSn-Dmd^mdx/J (mdx, stock no. 001801), and D2.B10 (DBA/2-congenic) Dmd^mdx (DBA/2J mdx, stock no. 013141) mice were from The Jackson Laboratory. Sprague-Dawley rats were purchased from Charles River Laboratories. For ex vivo experiments, mice were 10–16 weeks old. For in situ experiments, mice were 8–14 weeks of age. For in vivo chronic dosing studies, mdx and DBA/2J mdx were 4–5 weeks of age at study start. Dosing was via a 10 mL/kg suspension (1% methyl cellulose, 0.1% Tween 80 in water). For studies in 14-day-old preweaning mice, PO dosing was via syrup suspension (3 mg/kg/d). GRMD were supplied by Texas A&M Department of Veterinary Integrative Biosciences.\nFor sterile muscle injury, mice were anesthetized with isoflurane and 50 μL cardiotoxin (12 × 10^–6 M, 217503, Millipore) injected in the TA muscle. Muscles 8 days after injury were snap frozen in nitrogen-chilled isopentane. 8 μm cryosections were cut and stained with H&E. For each analysis, more than 10 slides (per condition/group) containing 6 muscle sections/sample were used, and myofibers in the injured area were counted and measured with a Mirax digital scanner and HALO software ([68]). For adult mouse studies, muscles were fixed in 10% formalin and embedded in paraffin for sectioning. Laminin staining (RB-082, Thermo Fisher Scientific) was used to outline fibers, and picrosirius red was used for collagen accumulation. Image analysis was performed using ImarisX64 software (Bitplane AG), and fiber sizing was calculated using minimal Feret’s diameter ([69]). For after weaning juvenile mouse studies, cryosections from soleus muscles were mounted in ProLong antifade mountant with DAPI (Thermo Fisher Scientific). Fiber type, size, and central nucleation were quantified with analysis via SMASH ([70]) and ImageJ (NIH). Antibodies used were mouse anti-MHC2A (1:50, SC-71, Developmental Studies Hybridoma Bank) and mouse anti-eMHC (1:10, BF-45, Developmental Studies Hybridoma Bank)."}, "GSK3B": {"target": "T14, GSK3B (Homo sapiens, UniProt P49841)", "T14 construct": "purchased Eurofins DiscoverX (KINOMEscan; SAFETYscan E/IC50 ELECT)", "assay": "KINOMEscan scanEDGE", "assay_type": "binding", "details": "20 uM"}, "PAK4": {"target": "T15, PAK4 (Homo sapiens, UniProt O96013)", "T15 construct": "purchased Eurofins DiscoverX (KINOMEscan; SAFETYscan E/IC50 ELECT)", "assay": "KINOMEscan scanEDGE", "assay_type": "binding", "details": "20 uM"}, "[3]": {"target": "T16, JAK2(JH1domain-catalytic) (Homo sapiens, UniProt O60674)", "T16 construct": "JAK2(JH1domain-catalytic); purchased Eurofins DiscoverX (KINOMEscan; SAFETYscan E/IC50 ELECT)", "T16 sequence (O60674 840-1132 limits assumed)": "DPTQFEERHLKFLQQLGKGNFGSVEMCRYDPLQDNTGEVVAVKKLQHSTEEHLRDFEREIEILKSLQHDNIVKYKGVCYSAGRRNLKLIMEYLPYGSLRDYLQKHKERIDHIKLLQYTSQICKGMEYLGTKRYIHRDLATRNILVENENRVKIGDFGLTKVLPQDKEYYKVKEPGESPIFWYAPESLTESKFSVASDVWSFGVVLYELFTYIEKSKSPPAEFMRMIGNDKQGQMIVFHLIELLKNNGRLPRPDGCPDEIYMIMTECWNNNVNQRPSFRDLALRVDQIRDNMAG", "assay": "KINOMEscan scanEDGE", "assay_type": "binding", "details": "20 uM"}, "EGFR(L858R)": {"target": "T17, EGFR(L858R) (Homo sapiens, UniProt P00533, L858R)", "T17 construct": "purchased Eurofins DiscoverX (KINOMEscan; SAFETYscan E/IC50 ELECT)", "assay": "KINOMEscan scanEDGE", "assay_type": "binding", "details": "20 uM"}, "BRAF": {"target": "T18, BRAF (Homo sapiens, UniProt P15056)", "T18 construct": "purchased Eurofins DiscoverX (KINOMEscan; SAFETYscan E/IC50 ELECT)", "T18 sequence (P15056 whole entry)": "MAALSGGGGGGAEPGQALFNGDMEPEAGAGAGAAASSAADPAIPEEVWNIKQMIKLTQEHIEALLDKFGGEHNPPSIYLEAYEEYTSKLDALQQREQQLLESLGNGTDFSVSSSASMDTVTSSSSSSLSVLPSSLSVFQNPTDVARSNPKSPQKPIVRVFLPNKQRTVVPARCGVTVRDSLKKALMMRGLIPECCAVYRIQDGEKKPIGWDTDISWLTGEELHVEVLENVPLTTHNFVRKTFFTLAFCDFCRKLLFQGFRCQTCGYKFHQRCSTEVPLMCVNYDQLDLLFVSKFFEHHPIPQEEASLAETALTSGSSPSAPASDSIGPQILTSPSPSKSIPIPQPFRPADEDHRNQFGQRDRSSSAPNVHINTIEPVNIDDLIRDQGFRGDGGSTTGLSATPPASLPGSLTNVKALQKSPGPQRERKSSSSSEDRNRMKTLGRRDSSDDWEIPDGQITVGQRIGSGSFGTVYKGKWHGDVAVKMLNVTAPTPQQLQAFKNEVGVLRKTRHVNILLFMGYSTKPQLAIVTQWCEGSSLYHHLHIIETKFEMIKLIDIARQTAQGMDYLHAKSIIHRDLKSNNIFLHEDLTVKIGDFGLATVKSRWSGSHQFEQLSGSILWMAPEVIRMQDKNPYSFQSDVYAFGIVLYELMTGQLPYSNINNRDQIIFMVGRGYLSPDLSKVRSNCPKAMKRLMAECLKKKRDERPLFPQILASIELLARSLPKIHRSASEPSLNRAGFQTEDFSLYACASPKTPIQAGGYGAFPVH", "assay": "KINOMEscan scanEDGE", "assay_type": "binding", "details": "20 uM"}, "INSR": {"target": "T19, INSR (Homo sapiens, UniProt P06213)", "T19 construct": "purchased Eurofins DiscoverX (KINOMEscan; SAFETYscan E/IC50 ELECT)", "T19 sequence (P06213 28-1382)": "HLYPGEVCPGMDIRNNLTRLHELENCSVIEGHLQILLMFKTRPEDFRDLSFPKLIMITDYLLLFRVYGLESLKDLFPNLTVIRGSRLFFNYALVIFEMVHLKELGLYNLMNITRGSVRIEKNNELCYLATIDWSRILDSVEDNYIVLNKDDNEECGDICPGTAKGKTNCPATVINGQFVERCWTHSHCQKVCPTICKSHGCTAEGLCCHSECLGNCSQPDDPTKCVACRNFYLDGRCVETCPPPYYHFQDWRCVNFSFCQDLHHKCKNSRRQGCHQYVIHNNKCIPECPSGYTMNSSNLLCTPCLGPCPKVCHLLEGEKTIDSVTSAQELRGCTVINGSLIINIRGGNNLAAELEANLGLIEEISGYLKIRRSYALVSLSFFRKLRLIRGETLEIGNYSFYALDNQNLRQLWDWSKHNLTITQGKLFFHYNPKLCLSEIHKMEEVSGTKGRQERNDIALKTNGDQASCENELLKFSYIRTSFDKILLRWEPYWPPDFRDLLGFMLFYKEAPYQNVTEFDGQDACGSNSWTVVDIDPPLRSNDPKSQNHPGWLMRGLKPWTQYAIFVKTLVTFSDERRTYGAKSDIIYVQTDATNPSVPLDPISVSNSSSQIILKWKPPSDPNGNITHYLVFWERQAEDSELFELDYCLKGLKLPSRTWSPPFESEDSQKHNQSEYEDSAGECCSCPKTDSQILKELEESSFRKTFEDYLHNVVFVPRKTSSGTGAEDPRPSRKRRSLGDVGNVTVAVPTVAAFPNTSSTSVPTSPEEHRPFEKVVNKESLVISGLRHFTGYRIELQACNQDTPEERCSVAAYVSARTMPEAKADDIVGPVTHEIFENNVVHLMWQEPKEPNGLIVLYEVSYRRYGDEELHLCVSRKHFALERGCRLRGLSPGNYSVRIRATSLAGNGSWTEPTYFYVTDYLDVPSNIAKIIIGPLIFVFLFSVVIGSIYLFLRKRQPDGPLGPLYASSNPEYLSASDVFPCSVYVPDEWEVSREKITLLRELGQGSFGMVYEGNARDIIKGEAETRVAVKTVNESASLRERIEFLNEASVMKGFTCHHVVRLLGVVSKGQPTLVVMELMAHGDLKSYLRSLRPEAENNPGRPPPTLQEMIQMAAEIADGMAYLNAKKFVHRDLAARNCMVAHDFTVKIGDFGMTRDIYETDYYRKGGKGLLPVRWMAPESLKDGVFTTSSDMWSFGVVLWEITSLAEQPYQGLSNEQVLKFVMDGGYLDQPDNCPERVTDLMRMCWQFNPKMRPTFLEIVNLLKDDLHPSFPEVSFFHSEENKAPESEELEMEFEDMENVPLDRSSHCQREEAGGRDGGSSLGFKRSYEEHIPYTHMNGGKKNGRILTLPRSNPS", "assay": "KINOMEscan scanEDGE", "assay_type": "binding", "details": "20 uM"}, "MAPKAPK2": {"target": "T20, MAPKAPK2 (Homo sapiens, UniProt P49137)", "T20 construct": "purchased Eurofins DiscoverX (KINOMEscan; SAFETYscan E/IC50 ELECT)", "T20 sequence (P49137 whole entry)": "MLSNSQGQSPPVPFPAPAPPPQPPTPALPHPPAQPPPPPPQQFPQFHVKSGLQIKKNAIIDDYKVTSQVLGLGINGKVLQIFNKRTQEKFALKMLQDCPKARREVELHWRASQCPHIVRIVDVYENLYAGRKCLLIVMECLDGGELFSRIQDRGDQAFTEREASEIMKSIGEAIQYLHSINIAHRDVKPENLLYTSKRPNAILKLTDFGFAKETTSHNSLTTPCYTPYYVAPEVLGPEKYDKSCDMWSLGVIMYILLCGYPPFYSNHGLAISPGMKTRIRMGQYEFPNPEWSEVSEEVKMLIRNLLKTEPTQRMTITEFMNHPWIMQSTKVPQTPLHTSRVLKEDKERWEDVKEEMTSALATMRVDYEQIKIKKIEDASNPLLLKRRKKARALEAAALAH", "assay": "KINOMEscan scanEDGE", "assay_type": "binding", "details": "20 uM"}}}
{"smiles": "O=c1ccc(-c2cnc(OCC(F)(F)F)nc2)nn1Cc1cncc(F)c1", "note": "[EDG-5506]", "values": [{"measurement": "binding, % of control", "setting": "ROCK2", "value": "89 % of control"}, {"measurement": "IC50", "setting": "[1]", "value": "> 100", "unit": "µM"}, {"measurement": "binding, % of control", "setting": "[2]", "value": "100 % of control"}, {"measurement": "binding, % of control", "setting": "RIOK2", "value": "80 % of control"}, {"measurement": "fibrosis in TA and diaphragm muscles", "setting": "DBA/2J mdx mouse", "value": "reduced fibrosis"}, {"measurement": "left ventricular fibrosis", "setting": "DBA/2J mdx mouse", "value": "trend toward lower fibrosis"}, {"measurement": "binding, % of control", "setting": "FGFR3", "value": "96 % of control"}, {"measurement": "binding, % of control", "setting": "FLT3", "value": "89 % of control"}, {"measurement": "binding, % of control", "setting": "FAK", "value": "100 % of control"}, {"measurement": "binding, % of control", "setting": "DYRK1B", "value": "100 % of control"}, {"measurement": "binding, % of control", "setting": "PLK1", "value": "100 % of control"}, {"measurement": "wheel running", "setting": "WT and mdx mice", "value": "no effect"}, {"measurement": "binding, % of control", "setting": "ZAP70", "value": "85 % of control"}, {"measurement": "binding, % of control", "setting": "PLK3", "value": "95 % of control"}, {"measurement": "binding, % of control", "setting": "PDGFRB", "value": "100 % of control"}, {"measurement": "binding, % of control", "setting": "CDK2", "value": "100 % of control"}, {"measurement": "body or muscle weight", "setting": "mdx mice; 8 weeks", "value": "no effect"}, {"measurement": "diaphragm fibrosis (collagen, picrosirius red)", "setting": "mdx mice; 8 weeks of treatment", "value": "decreased diaphragm fibrosis"}, {"measurement": "average grip strength", "setting": "mdx mice; after 5 weeks of dosing", "value": "increased average grip strength"}, {"measurement": "binding, % of control", "setting": "GSK3B", "value": "99 % of control"}, {"measurement": "binding, % of control", "setting": "PAK4", "value": "99 % of control"}, {"measurement": "binding, % of control", "setting": "[3]", "value": "83 % of control"}, {"measurement": "binding, % of control", "setting": "EGFR(L858R)", "value": "95 % of control"}, {"measurement": "binding, % of control", "setting": "BRAF", "value": "91 % of control"}, {"measurement": "binding, % of control", "setting": "INSR", "value": "96 % of control"}, {"measurement": "binding, % of control", "setting": "MAPKAPK2", "value": "100 % of control"}]}
